Reference: PubChem BioAssay (NCI)
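Where inhibition never reached the appropriate level, the endpoint shown equals the highest concentration tested. Otherwise, values were interpolated linearly from a five-concentration, 48-hour dose response in 96-well plates. TGI: concentration producing complete growth inhibition.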

What was measured:
Assay in all cases: growth of human tumour cells (NCI), 48 h
[1] = system: SNB-19 CNS
[2] = system: MCF7 breast
[3] = system: HCT-116 colon
[4] = system: UACC-257 melanoma
[5] = system: NCI/ADR-RES ovarian
[6] = system: NCI-H522 lung
[7] = system: UO-31 renal
[8] = system: NCI-H226 lung
[9] = system: SR leukemia
[10] = system: OVCAR-4 ovarian
[11] = system: A549 NSCLC
[12] = system: SN12C renal
[13] = system: OVCAR-3 ovarian
[14] = system: KM12 colon
[15] = system: IGROV1 ovarian
[16] = system: U251 CNS
[17] = system: PC-3 prostate
[18] = system: NCI-H460 lung
[19] = system: SK-OV-3 ovarian
[20] = system: HT29 colon
[21] = system: CCRF-CEM leukemia
[22] = system: HCC-2998 colon
[23] = system: K-562 leukemia
[24] = system: OVCAR-5 ovarian
[25] = system: M14 melanoma
[26] = system: HCT-15 colon
[27] = system: TK-10 renal
[28] = system: NCI-H23 lung
[29] = system: HOP-92 NSCLC
[30] = system: UACC-62 melanoma
[31] = system: MDA-MB-231 breast
[32] = system: T-47D breast
[33] = system: SNB-75 CNS
[34] = system: SF-295 CNS
[35] = system: A498 renal
[36] = system: SF-268 CNS
[37] = system: CAKI-1 renal
[38] = system: ACHN renal
[39] = system: MOLT-4 leukemia
[40] = system: SF-539 CNS
[41] = system: 786-0 renal
[42] = system: MDA-N
[43] = system: HL-60(TB) leukemia
[44] = system: EKVX NSCLC
[45] = system: MALME-3M melanoma
[46] = system: SW-620 colon
[47] = system: OVCAR-8 ovarian
[48] = system: SK-MEL-28 melanoma
[49] = system: HS 578T breast
[50] = system: HOP-62 NSCLC
[51] = system: SK-MEL-2 melanoma
[52] = system: DU-145 prostate
[53] = system: RXF 393 renal
[54] = system: COLO 205 colon
[55] = system: MDA-MB-435
[56] = system: BT-549 breast
[57] = system: SK-MEL-5 melanoma
[58] = system: RPMI-8226 leukemia
[59] = system: LOX IMVI melanoma

With `O=C(O)c1cc2c(cc1S(=O)(=O)O)C1C(C3C2C2(Cl)C(Cl)=C(Cl)C3(Cl)C2(Cl)Cl)C2(Cl)C(Cl)=C(Cl)C1(Cl)C2(Cl)Cl` (centres undefined) the TGI [1] was > 100 µM, the TGI [2] was > 100 µM and the TGI [3] was 32.3 µM. The TGI [4] was > 100 µM, the TGI [5] was > 100 µM and the TGI [6] was 46.8 µM. The TGI [7] was > 100 µM, the TGI [8] was 49 µM and the TGI [9] was 74.7 µM. For the same molecule, the TGI [10] was > 100 µM, the TGI [11] was > 100 µM and the TGI [12] was 46.4 µM. The TGI [13] was > 100 µM, the TGI [14] was > 100 µM and the TGI [15] was > 100 µM. For the same molecule, the TGI [16] was > 100 µM, the TGI [17] was > 100 µM and the TGI [18] was > 100 µM. For the same molecule, the TGI [19] was > 100 µM, the TGI [20] was 48 µM and the TGI [21] was 37.3 µM. For the same molecule, the TGI [22] was 51.2 µM, the TGI [23] was > 100 µM and the TGI [24] was 70 µM. For the same molecule, the TGI [25] was > 100 µM, the TGI [26] was > 100 µM and the TGI [27] was > 100 µM. For the same molecule, the TGI [28] was 73.3 µM, the TGI [29] was 85.2 µM and the TGI [30] was 46.9 µM. For the same molecule, the TGI [31] was 50.9 µM, the TGI [32] was > 100 µM and the TGI [33] was > 100 µM. The TGI [34] was 60.2 µM, the TGI [35] was > 100 µM and the TGI [36] was > 100 µM. The TGI [37] was > 100 µM, the TGI [38] was > 100 µM and the TGI [39] was > 100 µM. The TGI [40] was 60.3 µM, the TGI [41] was > 100 µM and the TGI [42] was > 100 µM. The TGI [43] was 79.9 µM, the TGI [44] was > 100 µM and the TGI [45] was > 100 µM. For the same molecule, the TGI [46] was > 100 µM, the TGI [47] was > 100 µM and the TGI [48] was > 100 µM. The TGI [49] was > 100 µM, the TGI [50] was 89.1 µM and the TGI [51] was 73.4 µM. For the same molecule, the TGI [52] was > 100 µM, the TGI [53] was > 100 µM and the TGI [54] was > 100 µM. For the same molecule, the TGI [55] was > 100 µM, the TGI [56] was > 100 µM and the TGI [57] was > 100 µM. For the same molecule, the TGI [58] was > 100 µM.
In the case of `O=C(COC(=O)c1ccccc1)c1ccc(Br)cc1`, the TGI [1] is reported as 30.5 µM, the TGI [2] is reported as 24.8 µM and the TGI [3] is reported as 30.2 µM. It also gave a TGI [4] of 28.8 µM, a TGI [5] of 61.9 µM and a TGI [7] of 6.08 µM. For the same molecule, the TGI [9] was 7.11 µM, the TGI [11] was 40.5 µM and the TGI [12] was 29.4 µM. The TGI [13] was > 100 µM, the TGI [14] was 37 µM and the TGI [15] was 3.59 µM. For the same molecule, the TGI [16] was 27.3 µM, the TGI [17] was 38.7 µM and the TGI [18] was 37.2 µM. For the same molecule, the TGI [19] was 33.3 µM, the TGI [20] was 46.3 µM and the TGI [21] was 25.9 µM. For the same molecule, the TGI [22] was 26.9 µM, the TGI [23] was > 100 µM and the TGI [24] was 22.8 µM. It also gave a TGI [25] of 31 µM, a TGI [26] of 35.1 µM and a TGI [27] of 10.8 µM. It also gave a TGI [28] of 49.2 µM, a TGI [29] of 30.5 µM and a TGI [30] of 26.1 µM. The TGI [31] was 30.5 µM, the TGI [32] was 62.6 µM and the TGI [33] was 29.9 µM. For the same molecule, the TGI [34] was 32 µM, the TGI [35] was 29.5 µM and the TGI [36] was 34.4 µM. It also gave a TGI [37] of 6.44 µM, a TGI [38] of 65.9 µM and a TGI [39] of 15 µM. It also gave a TGI [40] of 28.4 µM, a TGI [59] of 11.2 µM and a TGI [42] of 16.4 µM. The TGI [43] was 48.2 µM, the TGI [44] was 28 µM and the TGI [45] was 29.4 µM. For the same molecule, the TGI [46] was 21.8 µM, the TGI [47] was > 100 µM and the TGI [48] was 32.1 µM. It also gave a TGI [49] of 29.6 µM, a TGI [50] of 43.8 µM and a TGI [51] of 28.2 µM. The TGI [52] was 64.6 µM, the TGI [53] was 11.6 µM and the TGI [54] was 26.5 µM. For the same molecule, the TGI [55] was 20.4 µM, the TGI [56] was 21.1 µM and the TGI [57] was 27.5 µM. The TGI [58] was 16.9 µM.
In the case of `Cn1c(=O)c2[nH]c(COCc3nc4c([nH]3)c(=O)n(C)c(=O)n4C)nc2n(C)c1=O`, the TGI [1] is reported as > 100 µM, the TGI [2] is reported as > 100 µM and the TGI [3] is reported as > 100 µM. The TGI [4] was > 100 µM, the TGI [5] was > 100 µM and the TGI [6] was > 100 µM. For the same molecule, the TGI [7] was > 100 µM, the TGI [8] was > 100 µM and the TGI [9] was > 100 µM. For the same molecule, the TGI [10] was > 100 µM, the TGI [11] was > 100 µM and the TGI [12] was > 100 µM. The TGI [13] was > 100 µM, the TGI [14] was > 100 µM and the TGI [15] was > 100 µM. For the same molecule, the TGI [16] was > 100 µM, the TGI [17] was > 100 µM and the TGI [18] was > 100 µM. For the same molecule, the TGI [19] was > 100 µM, the TGI [20] was > 100 µM and the TGI [21] was > 100 µM. For the same molecule, the TGI [23] was > 100 µM, the TGI [24] was > 100 µM and the TGI [25] was > 100 µM. The TGI [26] was > 100 µM, the TGI [27] was > 100 µM and the TGI [28] was > 100 µM. For the same molecule, the TGI [29] was > 100 µM, the TGI [30] was > 100 µM and the TGI [31] was > 100 µM. For the same molecule, the TGI [32] was > 100 µM, the TGI [33] was > 100 µM and the TGI [34] was > 100 µM. The TGI [35] was > 100 µM, the TGI [36] was > 100 µM and the TGI [37] was > 100 µM. The TGI [38] was > 100 µM, the TGI [39] was > 100 µM and the TGI [40] was > 100 µM. For the same molecule, the TGI [41] was > 100 µM, the TGI [59] was > 100 µM and the TGI [42] was > 100 µM. The TGI [43] was > 100 µM, the TGI [44] was > 100 µM and the TGI [45] was > 100 µM. For the same molecule, the TGI [46] was > 100 µM, the TGI [47] was > 100 µM and the TGI [48] was > 100 µM. The TGI [49] was > 100 µM, the TGI [50] was > 100 µM and the TGI [51] was > 100 µM. For the same molecule, the TGI [52] was > 100 µM, the TGI [53] was > 100 µM and the TGI [54] was > 100 µM. The TGI [55] was > 100 µM, the TGI [56] was > 100 µM and the TGI [57] was > 100 µM. The TGI [58] was > 100 µM.
For `C#CCSc1cnc2ccccc2c1Sc1c[nH]c2ccccc2c1=O`, the TGI [1] was > 100 µM, the TGI [2] was > 100 µM and the TGI [3] was 32.5 µM. For the same molecule, the TGI [4] was 64.4 µM, the TGI [5] was > 100 µM and the TGI [6] was 29.1 µM. The TGI [7] was 5.99 µM, the TGI [8] was 89.9 µM and the TGI [9] was > 100 µM. For the same molecule, the TGI [10] was > 100 µM, the TGI [11] was > 100 µM and the TGI [12] was 40.7 µM. For the same molecule, the TGI [13] was > 100 µM, the TGI [14] was 65 µM and the TGI [15] was 20 µM. The TGI [16] was 50 µM, the TGI [17] was > 100 µM and the TGI [18] was 59.8 µM. For the same molecule, the TGI [19] was > 100 µM, the TGI [20] was > 100 µM and the TGI [21] was > 100 µM. The TGI [22] was 38.2 µM, the TGI [23] was > 100 µM and the TGI [24] was > 100 µM. The TGI [25] was > 100 µM, the TGI [26] was > 100 µM and the TGI [27] was > 100 µM. For the same molecule, the TGI [28] was > 100 µM, the TGI [29] was 61.2 µM and the TGI [30] was 54.1 µM. The TGI [31] was > 100 µM, the TGI [32] was 42.5 µM and the TGI [33] was 83.3 µM. The TGI [34] was > 100 µM, the TGI [36] was > 100 µM and the TGI [37] was > 100 µM. For the same molecule, the TGI [38] was 36.7 µM, the TGI [39] was > 100 µM and the TGI [40] was > 100 µM. The TGI [41] was 44.9 µM, the TGI [59] was 38.9 µM and the TGI [42] was > 100 µM. The TGI [43] was 88.9 µM, the TGI [44] was > 100 µM and the TGI [45] was > 100 µM. The TGI [46] was > 100 µM, the TGI [47] was > 100 µM and the TGI [48] was > 100 µM. For the same molecule, the TGI [49] was > 100 µM, the TGI [50] was > 100 µM and the TGI [51] was 53.5 µM. The TGI [52] was > 100 µM, the TGI [53] was 36.1 µM and the TGI [54] was > 100 µM. For the same molecule, the TGI [55] was > 100 µM, the TGI [56] was > 100 µM and the TGI [57] was 44.8 µM. For the same molecule, the TGI [58] was > 100 µM.
